Measured values published in patent US20090275730A1, “Temperature responsive depsipeptide polymer” (priority 2004, published 2009).

Assay: Water solubility and temperature responsibility in aqueous solvent (visual / turbidity)
Excerpt: However, the depsipeptide unit is not considered to be a material which exerts temperature responsibility in an aqueous solvent containing no organic solvent. […] Accordingly, the depsipeptide unit -Gly-X2-Cly-Hmb-Pro-(X2=any α-amino acid residue) is thought to be unsuitable as a temperature responsive material and thus has not been investigated intensively.

Substance: Poly[(Gly^1-Val^2-Gly^3-Hmb^4-Ala^5-Pro^6)-co-(Gly^7-Lys(Z)^8-Gly^9-Val^10-Ala^11-Pro^12)]
- temperature responsibility in aqueous solvent: temperature responsibility thereof was confirmed
